Reference: article PMC4020785 (PLoS ONE, 2014)

How the values were obtained:
[1] = set-up: method as in earlier work; conditions: dogs, oral dosing; ref personal communication from Aurigon Life Science – Tutzing, Germany; cited from earlier work
[2] = Cytotoxicity (CC50) in MT-4 cells; assay type: cell-based; conditions: human, Subtype B (X4)
Procedure: Cytotoxicity of ISDs was evaluated in J-Lat (clones 9.2 and 10.6) and PHA-activated human PBMCs. Cells were added to wells in a 96-well plate in the presence of various concentrations of ISDs, PMA or prostratin in sextuplicates for 24 and 72 h. Cell viability was determined using the CellTiter-blue fluorescence Cell Viability Assay (Promega) following the manufacturer's instruction.
(§1) Human PMBCs were incubated with 100 U recombinant IL-2 (Sigma-Aldrich) and 5 µg/mL phytohemagglutinin-P (PHA-P) (Difco) for 5 days at 37°C. MT-4 cells (1×10^6) or treated PBMCs (1.2×10^8) were infected with HIV-1 clone NL-4.3 or ZM247Fv-1 (MOI of 0.001) by spinoculation (1200 g at room temperature for 2 h). Uninfected cells were used as negative control and were also subjected to the spinoculation process. After spinoculation, supernatants were discarded and cells were resuspended in 10 mL of R10. Cells from each condition were then added to wells (96-well plate) containing serial dilutions of each ISD. For MT-4 cells, each dilution was done in sextuplicates and, for PBMCs, in triplicates. Cells were also incubated with different concentrations of ZDV as positive control. After 5 days in culture, Cell Titer Blue was added to each well and cells were incubated for additional 24 h. The median effective concentration for each drug is defined as EC50. In parallel with the infectivity assay, the same cell types were treated with different concentrations of drugs to determine their cytotoxicity, following the protocol described above. Drug concentration that results in a 50% decrease in viable cells is defined as the CC50 for each compound. EC50 was calculated according to Spearman-Karber and therapeutic index was defined by the ratio between CC50 and EC50 [55].

[3] = system: HIV-1 clone NL4.3 (subtype B); assay: HIV-1 NL4.3 (subtype B) infection of MT-4 cells, Cell Titer Blue readout; assay type: cell-based
Procedure: as §1
All statistical analyses were performed using program GraphPism version 6.0. Titrations for TCID50 infectivity were calculated by the Spearman-Karber method. Dose response curves to ISDs with HIV-1 subtype B and C were done using non-linear regression and were fit to the Hill equation.

[4] = system: latent HIV in CD4+ T cells from virally suppressed patients; assay: HIV pol RNA (RT-qPCR) in CD4+ T cells from HIV+ HAART-treated patients; assay type: cell-based, human; conditions: CD4+ T cells of five HIV+ HAART-treated patients, 1 µM, 24 h
From the text: Whole blood from five HIV+ patients at the Hospital Universitário Gaffrée e Guinle (Rio de Janeiro, Brazil) was collected for reactivation experiments. All individuals enrolled in the study voluntarily and provided written informed consent. Patients presented undetectable viral load (<50 copies/mL), more than 500 CD4+ T cells/mm^3 and have been HAART-treated for at least 10 months (Table 1). PBMCs where isolated following a Ficoll-Paque Plus protocol (GE Healthcare, UK). CD4+ T cells were selected by magnetic beads as described above, and 10^6 cells were incubated in R10 containing 1 µM of the testing compounds (ING-B, prostratin or PMA). DMSO 1% was used as negative control. The antiretroviral EFV (10 µM) was added to all conditions to prevent viral spread. After 24 h, cells were collected for RNA isolation using the All Prep Qiagen kit (Qiagen), as instructed by the manufacturer.
Total RNA from CD4+ T cells was analyzed by RT-qPCR using primers and probe (Life Technologies) specific for the HIV-pol region, as following: forward primer Pol-F (5'-[…] TTT T-3'), reverse primer Pol-R (5'-[…]-3') and a minor groove binder (MGB) probe Pol-Pb (5'-VIC-ATC CCC CCT TTT CTT T-3'). […]

human PBMCs = assay: Cellular proliferation assay (CFSE) in human PBMCs; assay type: cell-based; conditions: CFSE-stained human PBMC, 1, 5 or 10 µM, 8 days
Procedure: Human PBMCs were stained with CFSE following manufacturer's instructions (Sigma-Aldrich). After staining, cells were washed twice in PBS and incubated with ING-B (1, 5 or 10 µM), 5 µg/mL PHA-P plus 10 U/mL IL-2 (as positive control), or DMSO 1% (as negative control). Cell proliferation was assessed for 8 days after stimulation, and relative proliferation index was calculated for all conditions.

MT-4 cells = assay: Cell cycle analysis (propidium iodide) in MT-4 cells; assay type: cell-based; conditions: 48 h
Procedure: Human PBMCs and MT-4 cells were incubated at 37°C with different concentrations of ING-B for 48 h. After incubation, cells were collected, washed twice with PBS, and stained with 200 µl of propidium iodide (50 µg/mL, diluted in Hanks buffer with 1 mg/mL RNAse and 0.2% Triton X-100) for 15 min on ice before cytometry analysis.

HIV LTR in J-Lat clones = assay: LTR-driven GFP expression in J-Lat clones; assay type: cell-based, HIV-1
Procedure: J-Lat cells are Jurkat cells stably transfected by an HIV genome whose nef sequence was replaced by the GFP gene. Also, a frameshift mutation was introduced to the env gene to prevent virus spread. […] To test the ISDs, a million cells of each clone were treated with different concentrations of each compound (ING-A, ING-B, ING-C, prostratin and PMA) at 37°C. TNF-α (10 ng/mL) was used as a positive control. After 48 h, cells were collected, washed with saline solution (PBS) and GFP expression was evaluated in a FACScalibur cytometer (BD Biosciences). Data were analyzed with Cell Quest Pro software (BD Biosciences).

CCCCCC(=O)O[C@H]1C(C)=C[C@]23C(=O)[C@@H](C=C(CO)[C@@H](O)[C@]12O)[C@H]1[C@@H](C[C@H]3C)C1(C)C [ING-B, ingenol-3-hexanoate]
no-observed-adverse-effect level [1]: 4 mg/kg/day
CC50 at 5 days [2]: 28 µM
EC50 ([3]; Human immunodeficiency virus 1, MT4): 22 nM
TI (CC50/EC50) ([3]; MT-4 cells, Subtype B (X4)): 1272
HIV transcription (in words) [4]: levels similar to PMA treatment
cell proliferation (human PBMCs): no evidence that ING-B caused cell proliferation
cell cycle phases (MT-4 cells): did not alter cell cycle phases
GFP induction compared with other compounds (HIV LTR in J-Lat clones; J-Lat clone 10.6, 48 h): slightly more active than ING-A, ING-C and prostratin
levels of GFP expression, rank order (HIV LTR in J-Lat clones; J-Lat clones 9.2 and 10.6, 48 h, all concentrations tested): PMA = ING-B > ING-A = ING-C > prostratin
